Experimental data: publication PMC6010047, “Design, synthesis and biological evaluation of novel hydroxy-phenyl-1H-benzimidazoles as radical scavengers and UV-protective agents” (Journal of Enzyme Inhibition and Medicinal Chemistry, 2017)
Entries after “also recorded” stand apart in the source; their conditions may differ. Like-named read-outs stand apart in the source and are kept apart here.

Tests used:
[1] = 1,1-Diphenyl-2-picryl-hydrazyl radical (DPPH) assay; assay type: biochemical; conditions: Trolox equivalents; mean ± SE of three experiments
Protocol: To 1.5 mL DPPH methanolic solution (0.5 mM) was added 0.750 mL of sample solution proper diluted. Samples absorbance measurements were evaluated with a UV-VIS spectrophotometer (Thermo Spectronic Helios γ, Cambridge, UK) at fixed wavelength of 517 nm. Blank sample was prepared adding methanol to DPPH solution and Trolox was used as standard reference to achieve a calibration curve. The radical-scavenging activity is expressed as inhibition ratio of initial concentration of DPPH radical and is calculated according to the formula: Inhibition percentage (Ip) = [(AB-As)/AB]·100; where AB and As are, respectively, the absorbance values of blank reaction and of the tested sample[25].

[2] = Ferric reducing antioxidant of potency (FRAP) assay; assay type: biochemical; conditions: Trolox equivalents; mean ± SE of three experiments
Protocol: The ferric reducing ability of each standard solution was measured according to a modified protocol described by Guihua et al.[26]. The reagent for analysis was freshly prepared by mixing the following solutions in the reported ratio 10/1/1 (v:v:v) (i) 0.1 M acetate buffer pH 3.6, (ii) TPTZ (2,4,6-Tri(2-pyridyl)-s-triazine) 10 mmol/L in 40 mmol/HCl, (iii) ferric chloride 20 mmol/L. To a 1.9 mL of reagent were added 0.1 mL of sample proper diluted or solvent when blank was performed. Readings at fixed wavelength of the absorption maximum (593 nm) were done after 30 min, using a UV-VIS spectrophotometer; it was evaluated the absorbance increase of sample solution against the absorbance of blank reaction as parameter to calculate the antioxidant activity. The antioxidant activity is given as Trolox activity since this standard was used to perform the calibration curves.

[3] = Photochemiluminescence (PCL) method, ACL kit; assay type: biochemical; conditions: pure compound; Trolox equivalents; mean ± SE of three experiments
Protocol: (§1) PCL assay, based on the methodology of Popov and Lewin[23], was used to measure the antioxidant activity of synthesized compounds with a Photochem® apparatus (Analytik Jena, Leipzig, Germany) against superoxide anion radicals generated from luminol, a photosensitizer, when exposed to UV light (Double Bore® phosphor lamp, output 351 nm, 3 mWatt/cm^2). The antioxidant activity was measured using ACL (Antioxidant Capacity of Liposoluble substance) kit provided by the manufacturer designed to measure the antioxidant activity of lipophilic compounds[24]. […] The areas under the curves were calculated using the PCLsoft control and analysis software. […] This inhibition was used as a parameter for quantification and related to the decrease in the integral of PCL intensities caused by varying concentrations of Trolox. The observed inhibition of the signal was plotted against the concentration of Trolox added to the assay medium. The concentration of the added tested compounds was such that the generated luminescence during the 180-s sampling interval fell within the limits of the standard curve. The antioxidant assay was carried out in triplicate for each sample, and 20 μL of the diluted compound in HPLC-grade methanol (ACL) was sufficient to correspond to the standard curve.

[4] = UV spectra: λmax and molar extinction coefficient; assay type: physicochemical; conditions: for λ max: aqueous solution at pH 7; for ɛ (molar extinction coefficient): aqueous solution at pH 7, at λ max, linear regression Lambert–Beer
Protocol: Sun protection factor (SPF) is related to the UV absorption of the substances, so before including the molecules in cosmetic formulations we evaluated the wavelength of maximum absorption (λmax) and the molar extinction coefficient (ɛ) of each molecule in aqueous solution at pH 7. The UV spectra were recorded between 270 and 420 nm (20 nm higher and lower then UVA and UVB range) to verify the spectrum profile of the molecules within UVA and UVB region. UV spectrum of PBSA is an UVB filter and presents a λmax of 302 nm; after this peak, the absorbance fades going to higher wavelength until almost zero around 325 nm, and then, it provides no absorption in the UVA region. Molecules spectra overlapped for category according to the substituent in position 5 of the benzimidazole ring are shown in Figures 1, 2 and 3; PBSA spectrum is presented in all figures for comparison.
From the spectra appears that the lambda maxima (Table 2) of the new molecules shifted toward higher wavelength and in general the range of absorption curve was wider than PBSA. Within a group of molecules, the batochromic shift was more marked for the molecules that have a hydroxyl moiety in position 2 of the phenyl ring (4, 5, 6, 9, 10, 11, 13 and […]); the effect of ortho substituted is known to produce this shift toward higher wavelength. Increasing the number of auxochrome groups on phenyl ring an increment in the absorption range occurred, compounds with three hydroxyl on the phenyl ring (6, 11, 15) had the broadest spectrum and their lambda maxima shifted at the highest wavelength compared to the other compounds. The absorption spectrum of molecules with the same number and position of hydroxyl seemed only slightly influenced by the substituent in position 5 of the benzimidazole ring. After having established the lambda maxima for every compound, solutions at different concentrations were prepared to calculate the molar extinction coefficient by means of linear regression and applying Lambert–Beer equation (Table 2).

[5] = PCL antioxidant activity of finished formulations; assay type: biochemical; conditions: 3% (w/w) compound in O/W formulation
Protocol: as §1
It was decided to use a standard formulation oil in water (O/W).
In particular, molecules with phenolic hydroxyl in the ortho position on the phenyl ring (4, 5, 9, 10 and 13) had better and higher UVA/UVB ratio and critical wavelength, although they have the SPF value less than lead compound. Formulation containing products 2 and 14, which have a phenolic hydroxyl at the para position on the phenyl ring, have shown good values in terms of SPF, greater UVA protection factor, critical wavelength and also higher UVA/UVB ratio than PBSA, but yet lower than the molecules containing hydroxyl on the phenyl ring in ortho. […] Compound 8 has lower SPF than 3, but higher than PBSA; in comparison with 3, molecules 8 and 12 presented higher UVA/UVB ratio and critical wavelength. Regarding compounds with three hydroxyls on phenyl ring, they have good UVA filtering parameters, their critical wavelengths are the highest and SPF is higher than PBSA for molecule 6, while SPF of 15 is slightly lower and decreases further in molecule 11. Thus, it can be observed that parameters are mainly influenced by the number and position of the hydroxyl groups on the phenyl ring rather than the substituent in the 5-position of benzimidazole. Concomitantly, all formulations were analyzed to assess whether the antioxidant power was maintained. […] In Table 4, the antioxidant activity, measured by PCL method, of finished formulations is reported; as it can be seen results were in agreement with that obtained testing the pure compounds. […] Formulations containing compounds 3, 8 and 12 presented highest antioxidant capabilities; these are followed, but with important decrease in antioxidant capacity, by formulations with compounds 6, […] and 15 that have three hydroxyl moieties on phenyl ring.

[6] = system: NCTC-2544 cells; assay: Phototoxicity / cellular photoprotection, UVA or UVB irradiation, MTT test; conditions: for % Cell survival UVA 20 J/cm^2 / % Cell survival UVB 0.5 J/cm^2 / % Cell survival UVB 1 J/cm^2: 50 μM, vs nonirradiated cells (100%), 48 h after irradiation; for phototoxic effect (cell survival vs irradiated control): NCTC-2544, UVA/UVB irradiation; for viability at 20 µM / viability at 50 µM: Homo sapiens, NCTC-2544, light or radiation study, 48 h; for cell survival in relation to the irradiated control: after UVB irradiation 1 J/cm^2
Protocol: (§2) An immortalized, nontumorigenic cell line of human keratinocytes (NCTC-2544) was grown in a DMEM medium (Sigma-Aldrich Milan, Italy), supplemented with 115 units/mL of penicillin G, 115 μg/mL streptomycin, and 10% fetal calf serum (Invitrogen, Milan, Italy). Individual wells of a 96-well tissue culture microtiter plates (Falcon, Becton–Dickinson) were inoculated with 100 μL of complete medium containing 5 × 10^3 NCTC-2544. The plates were incubated at 37 °C in a humidified (5% CO2) incubator for 18 h prior to the experiments.
Two HPW 125 Philips lamps, mainly emitting at 365 nm, were used for UVA irradiation experiments. The spectral irradiance of the source was 4.0 mWcm^−^2 as measured at the sample level by a Cole-Parmer Instrument Company radiometer (Niles, IL) equipped with a 365-CX sensor. One or two PL-S 9 W/12 Philips lamps (280–370 nm; peak at 315 nm) were used for UVB irradiation experiments. To restrict the incident radiation to the range 305–370 nm, a glass filter (Schott SWG-305) was used. Total energy was detected by the same equipped with a sensor (model CX-312).
After medium removal, 100 μL of the drug solution, dissolved in DMSO and diluted with Hank’s Balanced Salt Solution (HBSS pH =7.2), was added to each well, incubated at 37 °C for 30 min, and then irradiated (20 J/cm^2 for UVA and 0.5 and 1 J/cm^2 for UVB). After irradiation, the solution was replaced with the medium and the plates were further incubated for 48 h. Cell viability was assayed by the MTT [(3–(4,5-dimethylthiazol-2-yl)-2,5 diphenyl tetrazolium bromide)] test as previously described by Mosmann[27].
Molecules were verified for their photocytotoxicity in the same cell line; the cells were treated with 50 μM solutions of compound and after 30 min were irradiated with 20 J/cm^2 UVA or with UVB at two energy amounts: 0.5 J/cm^2 and 1 J/cm^2 UVB. […] After irradiation, the solution was replaced with growth medium and the cells were further incubated for 48 h, and then, cell viability was assessed by MTT assay. […] The phototoxicity of tested molecules was compared with the ratio of cell survival of irradiated keratinocytes without substance (IC = irradiated control).

[7] = Cytotoxicity, MTT test, 72 h; conditions: human, NCTC-2544 keratinocytes (immortalized, nontumorigenic)
Protocol: as §2
After medium removal, 100 μL of the drug solution, dissolved in DMSO and diluted in DMEM medium, was added to each well, incubated at 37 °C for 72 h. Final DMSO concentration never exceeded 0.5%. Cell viability was assayed by the MTT (3–(4,5-dimethylthiazol-2-yl)-2,5 diphenyl tetrazolium bromide) test as previously described by Mosmann[27].
The tests were conducted using a specific cell line of human keratinocytes (NCTC-2544). To assess cell viability, in the presence of the study compounds, before and after the irradiation, the MTT assay was performed[27]. The cytotoxicity was checked after 72 h from the incubation of the keratinocytes with compounds; moreover, the same experiments were performed in the presence of the parent PBSA.

[8] = read-out: % Cell survival UVA 20 J/cm^2
[9] = read-out: % Cell survival UVB 0.5 J/cm^2
[10] = read-out: % Cell survival UVB 1 J/cm^2

| Compound | λ max [4] | ɛ (molar extinction coefficient) [4] | DPPH [1] | FRAP [2] | PCL [3] | PCL of finished formulation [5] | % Cell survival UVA 20 J/cm^2 [6] | % Cell survival UVB 0.5 J/cm^2 [6] | % Cell survival UVB 1 J/cm^2 [6] | phototoxic effect (cell survival vs irradiated control) [6] | IC50 at 72 h [7] | viability at 20 µM [6, 8] | viability at 20 µM [6, 9] | viability at 20 µM [6, 10] | viability at 50 µM [6, 8] | viability at 50 µM [6, 9] | viability at 50 µM [6, 10] | cell survival in relation to the irradiated control [6] |
| --- | --- | --- | --- | --- | --- | --- | --- | --- | --- | --- | --- | --- | --- | --- | --- | --- | --- | --- |
| 2-(2-Hydroxy-phenyl)-1H-benzimidazole [Compound 10] | 315 nm | 17 000 | 0.87 ± 0.05 μmolTrolox/mmol | 23.04 ± 0.09 μmolTrolox/mmol | 10.93 ± 0.05 μmolTrolox/mmol | 0.5 ± 0.02 μmol Trolox/g formulation | 4.8 ± 0.6% | 19.8 ± 2.4% | 3.5 ± 0.3% | phototoxic effect | – | – | – | – | – | – | – | – |
| O=S(=O)(O)c1ccc2[nH]c(-c3ccc(O)cc3)nc2c1 [Compound 2, 2-(4-Hydroxy-phenyl)-1H-benzimidazole-5-sulfonic acid] | 308 nm | 25 000 | 2.04 ± 0.15 μmolTrolox/mmol | 12.23 ± 0.25 μmolTrolox/mmol | 11.36 ± 0.08 μmolTrolox/mmol | 0.33 ± 0.03 μmol Trolox/g formulation | – | – | – | – | 26.4 ± 2.7 µM | 77.3 ± 2.8% | 78 ± 3.5% | 46.7 ± 3.4% | – | – | – | – |
| O=S(=O)(O)c1ccc2[nH]c(-c3ccc(O)c(O)c3)nc2c1 [Compound 3, 2-(3,4-Dihydroxy-phenyl)-1H-benzimidazole-5-sulfonic acid] | 313 nm | 23 000 | 2145.31 ± 45.8 μmolTrolox/mmol | 2707.29 ± 29.52 μmolTrolox/mmol | 22,838 ± 836,26 μmolTrolox/mmol | 2212.09 ± 68.35 μmol Trolox/g formulation | – | – | – | – | > 50 µM | – | – | – | 77.4 ± 4% | 71.5 ± 2.5% | 58.1 ± 2.6% | doubled |
| O=S(=O)(O)c1ccc2[nH]c(-c3ccccc3O)nc2c1 [Compound 4, 2-(2-Hydroxy-phenyl)-1H-benzimidazole-5-sulfonic acid] | 315 nm | 21 000 | 2.03 ± 0.09 μmolTrolox/mmol | 16.22 ± 0.89 μmolTrolox/mmol | 2.06 ± 0.05 μmolTrolox/mmol | 0.06 ± 0.02 μmol Trolox/g formulation | – | – | – | – | > 50 µM | – | – | – | 76.9 ± 2% | 74.3 ± 3.2% | 37.7 ± 1.7% | – |
| O=S(=O)(O)c1ccc2[nH]c(-c3ccc(O)cc3O)nc2c1 [Compound 5, 2-(2,4-Dihydroxy-phenyl)-1H-benzimidazole-5-sulfonic acid] | 318 nm | 23 000 | 21.41 ± 043 μmolTrolox/mmol | 19.87 ± 0.22 μmolTrolox/mmol | 159.1 ± 4.3 μmolTrolox/mmol | 0.95 ± 0.02 μmol Trolox/g formulation | – | – | – | – | > 50 µM | – | – | – | 79 ± 6% | 70.8 ± 3.9% | 38.6 ± 3.7% | – |
| O=S(=O)(O)c1ccc2[nH]c(-c3ccccc3)nc2c1 [PBSA, 2-phenyl-1H-benzimidazole-5-sulfonic acid, reference compound] | 302 nm | 25 000 | devoided of any activity; also recorded: < LOQ^a | – | devoided of any activity; also recorded: < LOQ^a | <LOQ^b | – | – | – | – | > 50 µM | – | – | – | 74.5 ± 1.4% | 75.2 ± 4.5% | 64.2 ± 3.1% | doubled |

More lines, main results first:

| λ max [4] | ɛ (molar extinction coefficient) [4] | Compound | DPPH [1] | FRAP [2] | PCL [3] | PCL of finished formulation [5] | % Cell survival UVA 20 J/cm^2 [6] | % Cell survival UVB 0.5 J/cm^2 [6] | % Cell survival UVB 1 J/cm^2 [6] | phototoxic effect (cell survival vs irradiated control) [6] | IC50 at 72 h [7] | viability at 20 µM [6, 8] | viability at 20 µM [6, 9] | viability at 20 µM [6, 10] | viability at 50 µM [6, 8] | viability at 50 µM [6, 9] | viability at 50 µM [6, 10] | cell survival in relation to the irradiated control [6] |
| --- | --- | --- | --- | --- | --- | --- | --- | --- | --- | --- | --- | --- | --- | --- | --- | --- | --- | --- |
| 315 nm | 14 000 | 2-(2,4-Dihydroxy-phenyl)-1H-benzimidazole [Compound 9] | 16.47 ± 0.54 μmolTrolox/mmol | 37.3 ± 0.35 μmolTrolox/mmol | 198.53 ± 2.65 μmolTrolox/mmol | 8.66 ± 0.04 μmol Trolox/g formulation | 3.7 ± 0.5% | 1.1 ± 0.3% | 0.5 ± 0.1% | – | – | – | – | – | – | – | – | – |
| 328 nm | 22200 L/mol/cm | O=S(=O)(O)c1ccc2[nH]c(-c3ccc(O)c(O)c3O)nc2c1 [Compound 6, 2-(2,3,4-Trihydroxy-phenyl)-1H-benzimidazole-5-sulfonic acid] | 1362.12 ± 133.96 μmolTrolox/mmol | 2713.3 ± 45.17 μmolTrolox/mmol | 1924.35 ± 101.82 μmolTrolox/mmol | 101.98 ± 1.08 μmol Trolox/g formulation | – | – | – | phototoxic effect | 23.1 ± 2.9 µM | 18.4 ± 2.3% | 59.3 ± 3.4% | 29.7 ± 2.1% | – | – | – | – |
| 311 nm | 16 000 | Oc1ccc(-c2nc3ccccc3[nH]2)cc1O [Compound 8, 2-(3,4-Dihydroxy-phenyl)-1H-benzimidazole] | 1974.58 ± 16.89 μmolTrolox/mmol | 2663.21 ± 32.53 μmolTrolox/mmol | 19190.6 ± 443.18 μmolTrolox/mmol | 2972.107 ± 145.63 μmol Trolox/g formulation | – | – | – | – | > 50 µM | – | – | – | 62.9 ± 4.3% | 72.8 ± 1% | 43.9 ± 3.4% | – |
